Source: PubChem BioAssay (NCI)
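Growth conditions: 96-well plates. Treatment: test compound, 48 hours, 5 concentrations. Analysis: linear interpolation between bracketing concentrations; unreached endpoints set to highest concentration. The concentration for 50% growth inhibition is given as GI50. Definition used: TGI = concentration required for complete inhibition of growth.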 *1 amine or outer side, *2 acyl side, *3 side chain or, on linkers, in order; H or OH if unused. Where a SMILES comes first, the peptide text is derived from it. Bridges are numbered along the chain shown (N, C = ends). [ ]: non-standard residue; d: D form. The star is where a group is joined. Phe(3,5-F2) = N[C@@H](Cc1cc(F)cc(F)c1)C(=O)O; Pro(4R-Me) = C[C@H]1CN[C@H](C(=O)O)C1; aThr = C[C@H](O)[C@H](N)C(=O)O; Pip = O=C(O)[C@@H]1CCCCN1; X10 = Fc1cc(C2CC2)ccc1N*; CO = O=C([*:1])[*:2]

Experiments:
Assay in all cases: inhibition of tumour cell growth, NCI panel, 48 h
BT-549 breast = tested on: BT-549 breast
MOLT-4 leukemia = tested on: MOLT-4 leukemia
HL-60(TB) leukemia = tested on: HL-60(TB) leukemia
KM12 colon = tested on: KM12 colon
CAKI-1 renal = tested on: CAKI-1 renal
HCT-15 colon = tested on: HCT-15 colon
A549 NSCLC = tested on: A549 NSCLC
TK-10 renal = tested on: TK-10 renal
HOP-92 NSCLC = tested on: HOP-92 NSCLC
OVCAR-3 ovarian = tested on: OVCAR-3 ovarian

Row | Structure (SMILES) | TGI (BT-549 breast) [µM] | TGI (MOLT-4 leukemia) [µM] | TGI (HL-60(TB) leukemia) [µM] | TGI (KM12 colon) [µM] | TGI (CAKI-1 renal) [µM] | TGI (HCT-15 colon) [µM] | TGI (A549 NSCLC) [µM] | TGI (TK-10 renal) [µM] | TGI (HOP-92 NSCLC) [µM] | TGI (OVCAR-3 ovarian) [µM] | GI50 (BT-549 breast) [µM] | GI50 (MOLT-4 leukemia) [µM] | GI50 (HL-60(TB) leukemia) [µM] | GI50 (KM12 colon) [µM] | GI50 (CAKI-1 renal) [µM] | GI50 (HCT-15 colon) [µM] | GI50 (A549 NSCLC) [µM] | GI50 (TK-10 renal) [µM] | GI50 (HOP-92 NSCLC) [µM] | GI50 (OVCAR-3 ovarian) [µM]
1 | Fc1ccc(NC(=S)SCc2ccc3c(c2)OCO3)cc1F | 51.4 | 39.8 | 42.6 | 61.7 | > 100 | 34.5 | 44.6 | > 100 | 88.9 | > 100 | – | – | – | – | – | – | – | – | – | –
2 | CN1CCCCC1CCN1c2ccccc2Sc2ccc(Cl)cc21 (stereo unspecified) | 23.3 | 10.2 | 6.05 | 7.38 | 15.8 | 11.7 | 11.8 | 7.09 | 5.18 | 14.6 | 10.4 | 3.2 | 2.66 | 2.77 | 3.63 | 2.93 | 3.31 | 2.27 | 1.35 | 4.04
3 | C[C@@H]1C[C@H]2C(=O)O[C@@H](C)[C@H](NC(=O)[C@H](Cc3cc(F)cc(F)c3)NC(=O)Nc3ccc(C4CC4)cc3F)C(=O)N3CCC[C@H]3C(=O)N3CCCC[C@H]3C(=O)N[C@@H](C)C(=O)N2C1 ({X10-CO}-[Phe(3,5-F2)][aThr]P[Pip]A[Pro(4R-Me)]; ester 2-C) | > 22.4 | > 42.7 | 1.82 | 10.3 | 10.3 | 5.28 | > 100 | > 35.1 | 4.76 | 3.27 | 0.0588 | 0.205 | 0.0387 | 0.0909 | 0.04 | 0.0796 | 0.0507 | 0.343 | 0.0452 | 0.043
4 | O=C1NC(=NCCc2cccc(F)c2)S/C1=C\c1ccc2ncccc2c1 | > 25 | > 25 | > 12.9 | > 25 | > 25 | > 25 | > 25 | > 25 | > 25 | > 25 | 10.6 | 8.72 | 2.08 | 1.07 | 2.43 | 0.77 | 1.55 | > 12.4 | > 25 | 1.76
5 | COc1cc(/C=N\NC(=O)CN2CCN(c3cc4c(cc3F)c(=O)c(C(=O)N/N=C/c3cc(OC)c(OC)c(OC)c3)cn4C3CC3)CC2)cc(OC)c1OC | 0.461 | > 100 | > 31.7 | – | > 100 | > 100 | > 100 | > 100 | 0.674 | 0.458 | 0.199 | 0.331 | 0.32 | – | > 50.5 | > 100 | > 24.6 | > 100 | 0.198 | 0.214
6 | COC(=O)/C=C1\S/C(=N\NC(=O)c2cc3ccc2/C=C\c2ccc(cc2)/C=C\3)N(c2ccccc2)C1=O | 5.35 | > 100 | > 100 | 4.15 | 30 | 4.05 | 8.37 | 5.6 | 9.14 | 3.61 | 2.22 | 3.12 | 2.7 | 2.03 | 3.74 | 1.87 | 2.83 | 2.03 | 1.91 | 1.8
7 | Cc1ccsc1C(=S)Nc1ccc(Cl)c(/C=N/OC(C)(C)C)c1 | 59.8 | > 100 | 74.7 | > 100 | > 100 | > 100 | > 100 | 41.1 | 48.8 | > 100 | – | – | – | – | – | – | – | – | – | –
8 | COc1cccc(-c2cc(-c3cccc(NS(C)(=O)=O)c3)nc(N)c2C#N)c1O | > 47.4 | > 100 | 2.77 | > 100 | 88.9 | > 100 | > 100 | > 100 | > 31.5 | – | 0.716 | 0.349 | 0.0861 | 0.107 | 0.141 | 0.0824 | 0.293 | 0.5 | 3.19 | –
9 | CCC(=O)[C@H](C)[C@@H](OC(=O)[C@H](C)CC)[C@H](C)[C@H]1OC(CC)=C(C)C(=O)[C@@H]1C | 34.9 | 53.6 | 40.3 | 52.5 | 52 | 42.2 | > 100 | 88.9 | 62.1 | 36.8 | 16.6 | 19.1 | 15.3 | 19.5 | 21.2 | 17 | 30.9 | 30.7 | 23.1 | 17.4
10 | COc1cc2c(cc1OCCCCN1CCN(CC(=O)Nc3ccc(Cl)cc3C(=O)c3ccccc3Cl)CC1)N=CC1CCCN1C2=O (stereo unspecified) | 0.799 | 0.512 | – | 0.497 | 0.676 | 2.3 | – | 0.841 | 0.298 | 0.435 | 0.292 | 0.209 | 0.273 | 0.215 | 0.28 | 0.923 | – | 0.311 | 0.0982 | 0.197
11 | C=CCOc1ccc2c(C)cc(=O)oc2c1C | > 100 | > 100 | > 100 | > 100 | > 100 | > 100 | > 100 | – | > 100 | > 100 | – | – | – | – | – | – | – | – | – | –
12 | C=CC(=O)Nc1cc(Nc2ncc(C(=O)OC(C)C)c(-c3cn(C)c4ccccc34)n2)c(OC)cc1N(C)CCN(C)C | 21.4 | 11.4 | 3.7 | 13.9 | 9.32 | 5.05 | 21.5 | 5.19 | 10.1 | 12.3 | 7.41 | 2.9 | 1.47 | 5.85 | 1.32 | 1.79 | 2.89 | < 0.01 | 2.02 | 2.58
13 | Cc1ccc(NC(=O)Nc2ccc(-c3cccnc3)cc2N2CCC(CO)CC2)cc1 | 9.2 | > 100 | 7.38 | > 100 | > 100 | > 100 | > 100 | 5.54 | 6.42 | 5.23 | 1.96 | 3.02 | 2.64 | 1.25 | 3.82 | 2.77 | 3.18 | 2.04 | 2.5 | 1.67
14 | Cc1cnc(NCCCN(C)C)c2c1[nH]c1ccc3cc(O)ccc3c12 | 3.12 | 0.534 | 8.37 | 10 | 4.18 | 17 | 2.5 | 15.8 | 1.31 | 1.59 | – | – | – | – | – | – | – | – | – | –
15 | Cc1ccc2c(C)c3c(ccc4ccccc43)c[n+]2c1 | 16.6 | 28.4 | 55.8 | 14.8 | > 100 | > 100 | > 100 | > 100 | 35.2 | 16.8 | 3.57 | 5.54 | 21.5 | 1.56 | 40.5 | 77.7 | 3.85 | 68.3 | 6.28 | 2.64
16 | O=[N+]([O-])c1cccc(-c2csc(NNC3=NC/C(=C/c4ccc5c(c4)OCO5)S3)n2)c1 | > 100 | > 100 | > 100 | 29.2 | > 100 | > 100 | > 100 | 81.6 | 43.7 | > 100 | – | – | – | – | – | – | – | – | – | –
17 | Nc1c(C(=O)c2cccc(CCS(N)(=O)=O)c2)cnn1-c1ccc(F)cc1 | > 25 | > 25 | > 25 | > 25 | > 25 | > 25 | > 25 | > 25 | > 25 | > 25 | > 25 | > 25 | > 25 | > 25 | > 25 | > 25 | > 25 | > 25 | > 25 | > 25
18 | CCN1CCN(Cc2ccc(NC(=O)c3cccc(C#Cc4cccc5[nH]nc(N)c45)c3)cc2C(F)(F)F)CC1 | 2.41 | 1.16 | 1.04 | 1.33 | 1.76 | – | 2.48 | 1.75 | 1.89 | 2.17 | 1.1 | 0.227 | 0.0979 | 0.302 | 0.485 | – | 1.13 | 0.631 | 0.35 | 0.615
19 | Cc1ccnc2c1ccc1c(C)ccnc12 | 14.3 | – | 2.39 | 12 | 10 | 10.4 | 11.4 | 14.6 | 16.1 | 11.4 | 0.521 | – | 0.328 | 0.504 | 0.209 | 0.383 | 0.386 | 0.588 | 0.656 | 0.526
20 | FC(F)(F)c1cccc(Nc2nc(-c3ccccc3)nc3ncccc23)c1 | 30.6 | 9.04 | 6.93 | > 100 | 18.7 | 23.7 | – | 10.5 | 18 | 28 | 5.52 | 3.11 | 2.51 | 4.3 | 3.86 | 3.28 | – | 2.61 | 4.65 | 5.2
